Measurements: patent publication US7456197B2, “Pyridinium cationic lipids as gene transfer agents” (The Texas A&M University System, priority 2003, dated 2008)

Assays:
[1] = Critical (phase transition) temperature Tc by differential scanning calorimetry; assay type: physicochemical
Summary of the method: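 Phase transition temperature Tc of the cationic lipids measured by differential scanning calorimetry at a heating rate of 5 °C/minute.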

[2] = Cationic liposome size by dynamic light scattering; assay type: physicochemical
Description: The three series of cationic lipids newly synthesized were assessed for their transfection efficiency in vitro, using the experimental conditions optimized in a previous study.^23 Essentially the cationic lipids were mixed with cholesterol at a 1:1 molar ratio, dissolved in chloroform/methanol and dried under vacuum to generate a lipid film. The dried lipid film was hydrated with sterile phosphate buffer isotonic saline with pH=7.4 (PBS) and sonicated to yield cationic liposomes. The resulting liposomal solution was allowed to react with a DNA solution to form the final cationic lipid-DNA complexes (lipoplexes), which were assessed for transfection efficiency using different cell cultures. We used a pGL3 plasmid (Promega, Madison, Wisc.), encoding a firefly luciferase gene under the control of the constitutively active SV40 promoter as the reporter for the transfection efficiency. An optimal^23 electrostatic charge ratio cationic lipid/DNA of 2:1 was used in all preparations. […] The ability of these new cationic lipids to generate relatively small cationic liposomes could be attributed to the relatively large curvature radius induced in the bilayer by the bulky pyridinium cationic head.
Dioleoylphosphatidylethanolamine (DOPE), cholesterol (CHOL), N-(2,3-dioleoyloxypropyl)-N,N,N-trimethylammonium chloride (DOTAP) were commercial products. The purity of the lipids was checked by thin layer chromatography and also by differential scanning calorimetry (DSC), which was also used for determining the critical temperature Tc. For the preparation of the liposomes a protocol optimized for this type of compounds was adopted as follows. The cationic lipid (with or without helper lipid) was dissolved in chloroform/methanol (2/1, v/v) to reach a final concentration of 1 mM for the charged species. From this stock solution 50 μL were aliquoted in a 1 mL tube and the solvent was evaporated in a SpeedVac evaporator, under vacuum, for 1 h. The dried lipid film was prepared by removing the traces of organic solvent in a dessicator, over Drierite®, under vacuum, overnight. The film was hydrated with 500 μL sterile phosphate buffer saline (PBS) the tube was purged with sterile N2, and vortexed for 1 minute. The liposomes were generated by sonicating the tube in a water bath sonicator for 5-30 minutes at 62° C. and at 37° C. for DOTAP. After sonication the preparations were allowed to reach room temperature.

## CCCCCCCCCCCCCC(=O)OCC(COC(=O)CCCCCCCCCCCCC)[n+]1c(C)cc(C)cc1C.F[P-](F)(F)(F)(F)F [Lipid 5AMyr, 1-(1,3-dimyristoyloxypropane-2-yl)-2,4,6-trimethylpyridinium hexafluorophosphate]
[1]; pure lipid
  Tc (critical temperature), Pure: 67.8 °C
[1]; with DOPE, 1:1 molar ratio
  Tc (critical temperature), With DOPE (1:1 molar ratio): 22.4 °C
[1]; with cholesterol, 1:1 molar ratio
  Tc (critical temperature), With cholesterol (1:1 molar ratio): 64.8 °C
[2]; cholesterol at 1:1 molar ratio to cationic lipid
  average size of the cationic vesicles: 95 nm
[2]; molar ratio of cholesterol to lipid halved
  average size of the cationic vesicles: 88 nm
